Experimental data as given in ChEMBL document CHEMBL3784929, “Pharmacokinetics of valproic acid in volunteers after a single dose study” (Biopharm Drug Dispos, 1985).

Experiments:
Type in all cases: ADME, organism-based
[1] = Total serum concentration in healthy human (6 volunteers) at 1 g, po administered as single dose measured after 6 hrs by gas liquid chromatography; details: read-out: Drug uptake
[2] = Total serum concentration in healthy human (6 volunteers) at 1 g, po administered as single dose measured after 8 hrs by gas liquid chromatography; details: read-out: Drug uptake
[3] = Total serum concentration in healthy human (6 volunteers) at 1 g, po administered as single dose measured after 10 hrs by gas liquid chromatography; details: read-out: Drug uptake
[4] = Total serum concentration in healthy human (6 volunteers) at 1 g, po administered as single dose measured after 12 hrs by gas liquid chromatography; details: read-out: Drug uptake
[5] = Total serum concentration in healthy human (6 volunteers) at 1 g, po administered as single dose measured after 14 hrs by gas liquid chromatography; details: read-out: Drug uptake
[6] = Total serum concentration in healthy human (6 volunteers) at 1 g, po administered as single dose measured after 24 hrs by gas liquid chromatography; details: read-out: Drug uptake
[7] = Total serum concentration in healthy human (6 volunteers) at 1 g, po administered as single dose measured after 30 hrs by gas liquid chromatography; details: read-out: Drug uptake
[8] = Total serum concentration in healthy human (6 volunteers) at 1 g, po administered as single dose measured after 39 hrs by gas liquid chromatography; details: read-out: Drug uptake
[9] = Total serum concentration in healthy human (6 volunteers) at 1 g, po administered as single dose measured after 48 hrs by gas liquid chromatography; details: read-out: Drug uptake
[10] = test system: Serum; test: Unbound serum concentration in healthy human (6 volunteers) at 1 g, po administered as single dose measured after 0.33 hrs by enzyme multiple immunotechnique; details: in vivo
[11] = test system: Serum; test: Unbound serum concentration in healthy human (6 volunteers) at 1 g, po administered as single dose measured after 0.66 hrs by enzyme multiple immunotechnique; details: in vivo
[12] = test system: Serum; test: Unbound serum concentration in healthy human (6 volunteers) at 1 g, po administered as single dose measured after 1 hr by enzyme multiple immunotechnique; details: in vivo
[13] = test system: Serum; test: Unbound serum concentration in healthy human (6 volunteers) at 1 g, po administered as single dose measured after 1.5 hrs by enzyme multiple immunotechnique; details: in vivo
[14] = test system: Serum; test: Unbound serum concentration in healthy human (6 volunteers) at 1 g, po administered as single dose measured after 2 hrs by enzyme multiple immunotechnique; details: in vivo
[15] = test system: Serum; test: Unbound serum concentration in healthy human (6 volunteers) at 1 g, po administered as single dose measured after 3 hrs by enzyme multiple immunotechnique; details: in vivo
[16] = test system: Serum; test: Unbound serum concentration in healthy human (6 volunteers) at 1 g, po administered as single dose measured after 4 hrs by enzyme multiple immunotechnique; details: in vivo
[17] = test system: Serum; test: Unbound serum concentration in healthy human (6 volunteers) at 1 g, po administered as single dose measured after 5 hrs by enzyme multiple immunotechnique; details: in vivo
[18] = test system: Serum; test: Unbound serum concentration in healthy human (6 volunteers) at 1 g, po administered as single dose measured after 6 hrs by enzyme multiple immunotechnique; details: in vivo
[19] = test system: Serum; test: Unbound serum concentration in healthy human (6 volunteers) at 1 g, po administered as single dose measured after 8 hrs by enzyme multiple immunotechnique; details: in vivo
[20] = test system: Serum; test: Unbound serum concentration in healthy human (6 volunteers) at 1 g, po administered as single dose measured after 10 hrs by enzyme multiple immunotechnique; details: in vivo
[21] = test system: Serum; test: Unbound serum concentration in healthy human (6 volunteers) at 1 g, po administered as single dose measured after 12 hrs by enzyme multiple immunotechnique; details: in vivo
[22] = test system: Serum; test: Unbound serum concentration in healthy human (6 volunteers) at 1 g, po administered as single dose measured after 14 hrs by enzyme multiple immunotechnique; details: in vivo
[23] = test system: Serum; test: Unbound serum concentration in healthy human (6 volunteers) at 1 g, po administered as single dose measured after 24 hrs by enzyme multiple immunotechnique; details: in vivo
[24] = test system: Serum; test: Unbound serum concentration in healthy human (6 volunteers) at 1 g, po administered as single dose measured after 30 hrs by enzyme multiple immunotechnique; details: in vivo
[25] = test system: Serum; test: Unbound serum concentration in healthy human (6 volunteers) at 1 g, po administered as single dose measured after 39 hrs by enzyme multiple immunotechnique; details: in vivo
[26] = test system: Serum; test: Unbound serum concentration in healthy human (6 volunteers) at 1 g, po administered as single dose measured after 48 hrs by enzyme multiple immunotechnique; details: in vivo
[27] = Fraction unbound in healthy human (6 volunteers) serum at 1 g, po administered as single dose measured after 0.33 hrs
[28] = Fraction unbound in healthy human (6 volunteers) serum at 1 g, po administered as single dose measured after 0.66 hrs
[29] = Fraction unbound in healthy human (6 volunteers) serum at 1 g, po administered as single dose measured after 1 hr
[30] = Fraction unbound in healthy human (6 volunteers) serum at 1 g, po administered as single dose measured after 1.5 hrs
[31] = Fraction unbound in healthy human (6 volunteers) serum at 1 g, po administered as single dose measured after 2 hrs
[32] = Fraction unbound in healthy human (6 volunteers) serum at 1 g, po administered as single dose measured after 3 hrs
[33] = Fraction unbound in healthy human (6 volunteers) serum at 1 g, po administered as single dose measured after 4 hrs
[34] = Fraction unbound in healthy human (6 volunteers) serum at 1 g, po administered as single dose measured after 5 hrs
[35] = Fraction unbound in healthy human (6 volunteers) serum at 1 g, po administered as single dose measured after 6 hrs
[36] = Fraction unbound in healthy human (6 volunteers) serum at 1 g, po administered as single dose measured after 8 hrs
[37] = Fraction unbound in healthy human (6 volunteers) serum at 1 g, po administered as single dose measured after 10 hrs
[38] = Fraction unbound in healthy human (6 volunteers) serum at 1 g, po administered as single dose measured after 12 hrs
[39] = Fraction unbound in healthy human (6 volunteers) serum at 1 g, po administered as single dose measured after 14 hrs
[40] = Tmax in healthy human (6 volunteers) at 1 g, po administered as single dose by gas liquid chromatography; details: in vivo
[41] = Cmax in healthy human (6 volunteers) at 1 g, po administered as single dose by gas liquid chromatography; set-up: dose 1 g, route oral; details: in vivo
[42] = Terminal half life in healthy human (6 volunteers) at 1 g, po administered as single dose by gas liquid chromatography; details: in vivo, read-out: beta t1/2 (converted)
[43] = Drug metabolism in healthy human (6 volunteers) assessed as excretion of valproic acid glucuronide in urine at 1 g, po administered as single dose measured upto 48 hrs by gas liquid chromatography; details: in vivo
[44] = Total AUC in healthy human (6 volunteers) at 1 g, po administered as single dose by gas liquid chromatography; set-up: dose 1 g, time AUCmax, route oral; details: in vivo
[45] = test system: Homo sapiens; test: fAUC in healthy human (6 volunteers) at 1 g, po administered as single dose by gas liquid chromatography; details: in vivo
[46] = Fraction unbound in healthy human (6 volunteers) serum assessed as ratio of fAUC to total AUC at 1 g, po administered as single dose by gas liquid chromatography
[47] = Fraction unbound in healthy human (6 volunteers) serum at 1 g, po administered as single dose
[48] = Total serum concentration in healthy human (6 volunteers) at 1 g, po administered as single dose measured after 0.33 hrs by gas liquid chromatography; details: read-out: Drug uptake
[49] = Total serum concentration in healthy human (6 volunteers) at 1 g, po administered as single dose measured after 0.66 hrs by gas liquid chromatography; details: read-out: Drug uptake
[50] = Total serum concentration in healthy human (6 volunteers) at 1 g, po administered as single dose measured after 1 hr by gas liquid chromatography; details: read-out: Drug uptake
[51] = Total serum concentration in healthy human (6 volunteers) at 1 g, po administered as single dose measured after 1.5 hrs by gas liquid chromatography; details: read-out: Drug uptake
[52] = Total serum concentration in healthy human (6 volunteers) at 1 g, po administered as single dose measured after 2 hrs by gas liquid chromatography; details: read-out: Drug uptake
[53] = Total serum concentration in healthy human (6 volunteers) at 1 g, po administered as single dose measured after 3 hrs by gas liquid chromatography; details: read-out: Drug uptake
[54] = Total serum concentration in healthy human (6 volunteers) at 1 g, po administered as single dose measured after 4 hrs by gas liquid chromatography; details: read-out: Drug uptake
[55] = Total serum concentration in healthy human (6 volunteers) at 1 g, po administered as single dose measured after 5 hrs by gas liquid chromatography; details: read-out: Drug uptake

**Q.** What does the source list for CCCC(CCC)C(=O)[O-].[Na+] [VALPROATE SODIUM]?
**A.** concentration at 6 h [1]: 85.9 µg/mL; concentration at 8 h [2]: 66.9 µg/mL; concentration at 10 h [3]: 61.4 µg/mL; concentration at 12 h [4]: 54.1 µg/mL; concentration at 14 h [5]: 47.5 µg/mL; concentration at 24 h [6]: 33.3 µg/mL; concentration at 30 h [7]: 23.4 µg/mL; concentration at 39 h [8]: 15.3 µg/mL; concentration at 48 h [9]: 10.6 µg/mL; Drug uptake(free) [10]: 2.1 µg/mL; Drug uptake(free) [11]: 4.9 µg/mL; Drug uptake(free) [12]: 5.3 µg/mL; Drug uptake(free) [13]: 4.3 µg/mL; Drug uptake(free) [14]: 6.1 µg/mL; Drug uptake(free) [15]: 4.7 µg/mL; Drug uptake(free) [16]: 4.6 µg/mL; Drug uptake(free) [17]: 3.6 µg/mL; Drug uptake(free) [18]: 3.8 µg/mL; Drug uptake(free) [19]: 3.9 µg/mL; Drug uptake(free) [20]: 2.7 µg/mL; Drug uptake(free) [21]: 1.9 µg/mL; Drug uptake(free) [22]: 1.2 µg/mL; Drug uptake(free) [23]: 0 µg/mL; Drug uptake(free) [24]: 0 µg/mL; Drug uptake(free) [25]: 0 µg/mL; Drug uptake(free) [26]: 0 µg/mL; fraction unbound at 0.33 h [27]: 0.04; fraction unbound at 0.66 h [28]: 0.052; fraction unbound at 1 h [29]: 0.051; fraction unbound at 1.5 h [30]: 0.042; fraction unbound at 2 h [31]: 0.058; fraction unbound at 3 h [32]: 0.049; fraction unbound at 4 h [33]: 0.049; fraction unbound at 5 h [34]: 0.04; fraction unbound at 6 h [35]: 0.044; fraction unbound at 8 h [36]: 0.059; fraction unbound at 10 h [37]: 0.046; fraction unbound at 12 h [38]: 0.037; fraction unbound at 14 h [39]: 0.026; Tmax [40]: 2 h; Cmax [41]: 108 µg/mL; half-life [42]: 14.9 h; Drug metabolism [43]: 176.6 mg; AUC [44]: 2120 µg·h/mL; fAUC [45]: 84.2 µg·h/mL; fraction unbound [46]: 0.041; fraction unbound [47]: 0.049; concentration at 0.33 h [48]: 52.3 µg/mL; concentration at 0.66 h [49]: 95.2 µg/mL; concentration at 1 h [50]: 105 µg/mL; concentration at 1.5 h [51]: 103 µg/mL; concentration at 2 h [52]: 105 µg/mL; concentration at 3 h [53]: 96.3 µg/mL; concentration at 4 h [54]: 92.9 µg/mL; concentration at 5 h [55]: 88.6 µg/mL
